Results reported in patent US20050032042A1, “Anti-retroviral analysis by mass spectrometry” (priority 2003, published 2005).

Legend:
[1] = in vivo; cited from earlier work
[2] = in vivo; cited from earlier work; remark: listed apart in the source
[3] = for Free Plasma (f) vs Total Plasma (tp) regression equation / r, free plasma vs total plasma / Saliva (s) vs Total Plasma (tp) regression equation / r, saliva vs total plasma: human; for Saliva (s) vs Total Plasma (tp) regression equation / r, saliva vs total plasma / correlation of free drug or saliva drug concentration with total drug concentration (in words): in vivo
Experimental: Protein binding and free drug measurement: An Institutional Review Board (IRB) approved protocol was developed for the assessment of free drug concentrations by measuring both the saliva and free drug in plasma utilizing the tandem mass spectrometric methods for plasma or serum measurement. […] A bigger sample is injected for the free drug measurement (50 uL vs 10 uL for plasma/serum.). Free drug concentrations can be measured by using either equilibrium dialysis or, more commonly, devices with molecular cutoff filters such as the Amicon Centrifree micropartition system (Millipore Corporation, Bedford, Mass.) or the Worthington Diagnostics “ultrafree” system (Worthington, Jacksonville, Fla.). Plasma ultrafiltrate is obtained by centrifuging 1 mL of plasma in Amicon system and then deproteinising as described for serum/plasma previously (15, 40).

[4] = cited from earlier work

| Free Plasma (f) vs Total Plasma (tp) regression equation [3] | r, free plasma vs total plasma [3] | Saliva (s) vs Total Plasma (tp) regression equation [3] | r, saliva vs total plasma [3] | correlation of free drug or saliva drug concentration with total drug concentration (in words) [3] | SMILES | Trough Concentration [1] | C max. [2] [ng/mL] | Vd [2] [L/kg] | C min. [2] | t ½ [2] [h] | Protein Bindings % [4] [%] |
| --- | --- | --- | --- | --- | --- | --- | --- | --- | --- | --- | --- |
| – | – | – | – | – | Nc1ccn([C@@H]2CS[C@H](CO)O2)c(=O)n1 [Lamivudine] | 100 to 1000 ng/mL | 1800 | – | – | – | – |
| f = 0.19tp + 47 | 0.749 | s = 0.29tp + 20 | 0.912 | good correlations | O=c1[nH]cnc2c1ncn2[C@H]1CC[C@@H](CO)O1 [Didanosine] | 100 to 300 ng/mL | 24000 | 0.8 | – | – | – |
| f = 0.36tp + 483 | 0.909 | – | 0.901 | good correlations | Cc1ccnc2c1NC(=O)c1cccnc1N2C1CC1 [Nevirapine] | 3000 ng/mL | 20000 | 1.2 | 3000 ng/mL | 30 | 60 |
| f = 0.66tp − 4 | 0.924 | – | 0.909 | good correlations | Cc1cn([C@H]2C=C[C@@H](CO)O2)c(=O)[nH]c1=O [Stavudine] | 20 ng/mL | 2000 | 1.0 | 20 ng/mL | 1.1 | – |
| – | – | s = 0.05tp + 194 | 0.777 | good correlations | Cc1cccc(C)c1OCC(=O)N[C@@H](Cc1ccccc1)[C@@H](O)C[C@H](Cc1ccccc1)NC(=O)[C@H](C(C)C)N1CCCNC1=O [Lopinavir] | – | – | – | – | – | – |
| – | – | – | – | – | CC(C)Nc1cccnc1N1CCN(C(=O)c2cc3cc(NS(C)(=O)=O)ccc3[nH]2)CC1 [Delavirdine] | 3000 to 8000 ng/mL | 16000 | – | 3000 ng/mL | 6 | 99 |
| – | – | – | – | – | Nc1ccn([C@H]2CC[C@@H](CO)O2)c(=O)n1 [Zalcitabine] | Undetectable | <25 | 0.5 | undetectable | 2.0 | <5 |
| – | – | s = 0.043tp + 109 | 0.991 | good correlations | CC(C)c1nc(CN(C)C(=O)N[C@H](C(=O)N[C@@H](Cc2ccccc2)C[C@H](O)[C@H](Cc2ccccc2)NC(=O)OCc2cncs2)C(C)C)cs1 [Ritonavir] | 1000 ng/mL | 14000 | 0.4 | 1000 ng/mL | 4 | – |
| – | – | – | – | – | CC(C)(C)NC(=O)[C@@H]1C[C@@H]2CCCC[C@@H]2CN1C[C@@H](O)[C@H](Cc1ccccc1)NC(=O)[C@H](CC(N)=O)NC(=O)c1ccc2ccccc2n1 [Saquinavir] | 15 to 40 ng/mL | 500 | 10 | – | 12 | – |
| – | – | – | – | – | CC(C)(C)NC(=O)[C@@H]1CN(Cc2cccnc2)CCN1C[C@@H](O)C[C@@H](Cc1ccccc1)C(=O)N[C@H]1c2ccccc2C[C@H]1O [Indinavir] | – | 10000 | – | – | – | – |

| SMILES | Free Plasma (f) vs Total Plasma (tp) regression equation [3] | r, free plasma vs total plasma [3] | Saliva (s) vs Total Plasma (tp) regression equation [3] | r, saliva vs total plasma [3] | correlation of free drug or saliva drug concentration with total drug concentration (in words) [3] | Trough Concentration [1] | C max. [2] [ng/mL] | Vd [2] [L/kg] | C min. [2] | t ½ [2] [h] | Protein Bindings % [4] [%] |
| --- | --- | --- | --- | --- | --- | --- | --- | --- | --- | --- | --- |
| Cc1cn([C@H]2C[C@H](N=[N+]=[N-])[C@@H](CO)O2)c(=O)[nH]c1=O [Zidovudine] | f = 0.14tp + 27 | 0.907 | – | – | good correlations | <20 ng/mL | 1800 | 1.4 | <20 ng/mL | 1.2 | <5 |
| Cc1c(O)cccc1C(=O)N[C@@H](CSc1ccccc1)[C@H](O)CN1C[C@H]2CCCC[C@H]2C[C@H]1C(=O)NC(C)(C)C [Nelfinavir] | – | – | s = 0.0026tp + 78 | 0.047 | not | 1000 ng/mL | 4000 | 4 | 1000 ng/mL | 5 | 98 |
